Publication PMC11310889, “Ribosomal translation of fluorinated non-canonical amino acids for de novo biologically active fluorinated macrocyclic peptides” (Chemical Science, 2024)

Tests used:
Type in all cases: cell-based, Escherichia coli
[1] = system: E. coli W3110; assay: Protein leakage assay; conditions: E. coli W3110, 5 μM peptide, 15 min, pellet analysed by SDS-PAGE, compared to R9-treated sample (Fig. S10)
Procedure: Thaw the previously preserved E. coli W3110 cells from the -80 °C freezer. Scrape a small amount and inoculate it into 1 mL of LB liquid medium. Incubate overnight in a 37°C shaker. Next day, transfer the culture to fresh LB liquid medium at a 1:100 inoculation ratio and incubate at 37 °C until the OD600 reaches approximately 0.47 to 0.53. Collect 300 μL of the E. coli W3110 cells and centrifuge for 2 min at 13,000 rpm, discarding the supernatant afterward. Resuspend the untreated group in 300 μL of PBS, and the peptide treatment group in 297 μL of ddH2O. Add 3 μL of 0.5 mM different peptides to the treatment group, mix well, and allow to react for 15 min. After the treatment, resuspend all samples in 15 μL of 6×SDS loading buffer and 15 μL of 10% SDS. All samples were heated at 99.9°C for 15 min, followed by 10% SDS-PAGE analysis and staining with Coomassie brilliant blue R250. […]
(§1) Incubate overnight in a 37°C shaker. […]

[2] = system: E. coli W3110; assay: Scanning electron microscopy of cell morphology; conditions: E. coli W3110 logarithmic-phase, 4 h treatment at 2 μM and 5 μM (Fig. 5B, S11)
Procedure: Thaw the previously preserved E. coli W3110 cells from the -80 °C freezer. […]
Scanning electron microscopy
Thaw the previously preserved E. coli W3110 cells from the -80°C freezer. Scrape a small amount and inoculate it into 1 mL of LB liquid medium. Incubate overnight in a 37°C shaker. The next day, inoculate the strain into fresh LB liquid medium at a 1:100 ratio and incubate at 37°C until the OD600 reaches approximately 0.47 to 0.53. Take 500 μL of E. coli W3110 cells, centrifuge for 10 min at 4000 rpm, and discard the supernatant. Resuspend the cells in 500 μL of PBS, then centrifuge again at 4000 rpm for 10 min and discard the supernatant. Dissolve various macrocyclic peptides in DMSO and dilute to the required concentration. Resuspend the untreated group in 500 μL of PBS.
For the peptide treatment group, resuspend in 495 μL of ddH2O, add 5 μL of 0.2 mM or 0.5 mM peptides, mix well, and let react for 4 h.
After the treament, spot 4 μL of the sample on plates. Perform the first ten-fold dilution and mix, then continue with the second to fifth ten-fold dilutions. Incubate the plates inverted overnight in a 37°C incubator. Scan and count the colonies. For the remaining 492 μL, centrifuge at 6100g for 10 min, discard the supernatant, add 500 μL of ddH2O, and let it stand for 15 min. Centrifuge again at 6100g for 10 min, discard the supernatant, and add 500 μL of ddH2O containing 2.5% glutaraldehyde. Resuspend and fix the cells overnight at 4°C. Centrifuge at 6100g for 10 min, remove the supernatant, and wash twice with ddH2O, letting it stand for 15 min each time, followed by centrifugation at 6100g for 10 min. Discard the supernatant. Dehydrate the sample with ethanol at concentration gradients of 30%, 60%, and 90%, without resuspension, centrifuging at 6100g for […]
10 min and discarding the supernatant after each step. Finally, use 100% ethanol, rest for 15 min, centrifuge at 6100g for 10 min, discard the supernatant, and repeat with 100% ethanol, leaving about 10 μL. Then the critical point was dried and sprayed with gold, and the images were observed by […]
Prediction of binding sites between peptides and the BAM complex
Firstly, the fpocket algorithm was used, a rapid method for pocket prediction based on the three-dimensional structure of BAM complex (PDB ID: 5AYW). This method establishes a grid surrounding the protein, positioning alpha spheres on grid points devoid of spatial conflicts with protein atoms, subsequently utilizing a clustering algorithm to ascertain whether these regions constitute potential binding pockets. Alpha spheres were designated with radii ranging from 3.4Å to 6.2Å, with a prerequisite of at least 15 alpha spheres for a region to be considered a pocket. […]
PepNN evaluated each amino acid for its potentiality as a peptide binding site. […]

[3] = system: E. coli W3110; assay: Propidium iodide (PI) assay of membrane permeability; conditions: E. coli W3110 logarithmic-phase, 15 min treatment with 5 μM peptide, PI 25 μg/mL 15 min (Fig. 5A)
Procedure: Propidium Iodide (PI) assay
Thaw the previously preserved E. coli W3110 cells from the -80 °C freezer. Scrape a small amount and inoculate it into 1 mL of LB liquid medium. Culture overnight in a 37°C shaker. Next day, inoculate the strain into fresh LB liquid medium at a 1:100 ratio and incubate at 37 °C until the OD600 reaches approximately 0.47 to 0.53. Take 100 μL of the E. coli W3110 cells and centrifuge for 2 min at 13,000 rpm. Discard the supernatant. For the untreated group, resuspend the cells in 100 μL of PBS. For the peptide treatment group, resuspend the cells in 99 μL of ddH2O and add 1 […]
μL of 0.5 mM of the different peptides. Mix thoroughly and let react for 15 min. After the treatment, take 80 μL of each sample and incubate with PI at a final concentration of 25 μg/mL for 15 min.
After incubation, wash the samples with the same amount of PBS, centrifuge, and resuspend at a 10-fold concentration. Observe the images using a Nikon Eclipse Ci-L Plus microscope. […]
as §1
Centrifuge again at
6100g for 10 min, discard the supernatant, and add 500 μL of ddH2O containing 2.5% glutaraldehyde. Resuspend and fix the cells overnight at 4°C. Centrifuge at 6100g for 10 min, remove the supernatant, and wash twice with ddH2O, letting it stand for 15 min each time, followed by centrifugation at 6100g for 10 min. Discard the supernatant. Dehydrate the sample with ethanol at concentration gradients of 30%, 60%, and 90%, without resuspension, centrifuging at 6100g for […]

Substance: Ac-DYLIWYSRSHPFRVCGS(Acp)RRRRRRRRR-NH2 (sidechain bridge or staple) [BAM-D1-R9, BAM-D1 conjugated with cell-penetrating peptide R9]
- cellular protein leakage [1]: partial cellular protein leakage
- morphological changes by scanning electron microscopy [2]: severe damage in the cell shape and even lysis
- PI red fluorescence (cell membrane permeability) [3]: notable red fluorescence intensity
